Data on 29 compounds can be found in patent publication US8138168B1 (Takeda Pharmaceutical Company Limited, priority 2007, dated 2012).

The term IC50 denotes the concentration that gives 50% inhibition.

In this test the target is T1, Recombinant human renin (Homo sapiens, UniProt P00797).
T1 construct: isolate the active form (residues 67-406); made in house; host or cells: FreeStyle 293-F cells (transient expression of pcDNA3.1(+)/hREN)
T1 sequence (P00797 67-406): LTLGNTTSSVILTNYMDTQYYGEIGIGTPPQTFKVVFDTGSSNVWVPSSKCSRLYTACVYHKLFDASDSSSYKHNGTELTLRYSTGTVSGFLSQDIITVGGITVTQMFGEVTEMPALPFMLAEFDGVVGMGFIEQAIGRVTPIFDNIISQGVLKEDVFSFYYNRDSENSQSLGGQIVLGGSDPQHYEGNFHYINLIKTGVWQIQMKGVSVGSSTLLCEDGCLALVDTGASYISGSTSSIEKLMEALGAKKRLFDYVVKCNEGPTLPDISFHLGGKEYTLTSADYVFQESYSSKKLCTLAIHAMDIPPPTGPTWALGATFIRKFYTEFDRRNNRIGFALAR
Briefly: In vitro enzymatic activity assay of renin inhibitors (fluorogenic peptide substrate). It is filed as biochemical. The settings on record: read-out: IC50 of Exemplified Compounds Against Renin. Here is the method: Test compounds in varying concentrations may be reacted with recombinant human renin in the presence of substrate, e.g., QXL520-γ-Abu-[…](HiLyteFluo488)-Arg-OH (Anaspec, San Jose, Calif.). […] Inhibition constants (IC50) may be calculated by non-linear curve fitting of the compound concentrations and fluorescence intensities to the standard IC50 equation.
Solutions of test compounds in varying concentrations mM final concentration) are prepared in dimethyl sulfoxide (DMSO) and then diluted into assay buffer comprising 50 mM Hepes, 1 mM EDTA, 1 mM DTT, 0.1 mg/mL BSA, 0.01% Brij35, pH 7.4. Alternatively, the assay can be performed with a high BSA concentration, wherein the buffer contains an additional 2% BSA.
Recombinant human renin (3 nM final concentration) is added to the dilutions and pre-incubated with the compounds for 10 minutes at 37° C. […] After pre-incubation, the reaction is initiated with of substrate QXL520-γ-Abu-[…](HiLyteFluo488)-Arg-OH (Anaspec, San Jose, Calif.). The final DMSO in the assay is 5%. The total volume of the reaction mixture is 20 μL, which can be placed on Greiner 384-well small volume plates.
The fluorescence intensity is determined upon the addition of substrate and determined again after incubation at 37° C. for one hour. The fluorescence intensity of a blank (no inhibition) using vehicle alone is also determined. Renin activity is linearly proportional to the change in fluorescence observed (final-initial).
Regarding `N[C@@H](CC(=O)N1CCCC(c2nc3ccccc3[nH]2)C1)c1ccc(Cl)cc1Cl` (stereo partly drawn) [Compound 35, (3S)-1-(3-(1H-benzo[d]imidazol-2-yl)piperidin-1-yl)-3-amino-3-(2,4-dichlorophenyl)propan-1-one], the IC50 is greater than 1000 nM. In the case of `N[C@@H](CC(=O)N1CCCC(c2nc3ccccc3[nH]2)C1)Cc1ccc(Cl)c(Cl)c1` (stereo partly drawn) [Compound 36, (3R)-1-(3-(1H-benzo[d]imidazol-2-yl)piperidin-1-yl)-3-amino-4-(3,4-dichlorophenyl)butan-1-one], the IC50 is greater than 1000 nM. Turning to `N[C@@H](CC(=O)N1CCCC(c2nc3ccccc3[nH]2)C1)c1cccc(Cl)c1Cl` (stereo partly drawn) [Compound 37, (3S)-1-(3-(1H-benzo[d]imidazol-2-yl)piperidin-1-yl)-3-amino-3-(2,3-dichlorophenyl)propan-1-one], the IC50 is greater than 1000 nM. The value for `N[C@@H](CC(=O)N1CCCC(c2nc3ccccc3[nH]2)C1)Cc1cccc2ccccc12` (stereo partly drawn) [Compound 38, (3R)-1-(3-(1H-benzo[d]imidazol-2-yl)piperidin-1-yl)-3-amino-4-(naphthalen-1-yl)butan-1-one] was greater than 1000 nM; that for `N[C@@H](CC(=O)N1CCCC(c2nc3ccccc3[nH]2)C1)Cc1ccc([N+](=O)[O-])cc1` (stereo partly drawn) [Compound 39, (3R)-1-(3-(1H-benzo[d]imidazol-2-yl)piperidin-1-yl)-3-amino-4-(4-nitrophenyl)butan-1-one] was greater than 1000 nM; that for `N[C@@H](CC(=O)N1CCCC(c2nc3ccccc3[nH]2)C1)c1cccc([N+](=O)[O-])c1` (stereo partly drawn) [Compound 40, (3S)-1-(3-(1H-benzo[d]imidazol-2-yl)piperidin-1-yl)-3-amino-3-(3-nitrophenyl)propan-1-one] was greater than 1000 nM.

Consider `N[C@@H](CC(=O)N1CCCC(c2nc3ccccc3[nH]2)C1)c1cccc(Br)c1` (stereo partly drawn) [Compound 41, (3S)-1-(3-(1H-benzo[d]imidazol-2-yl)piperidin-1-yl)-3-amino-3-(3-bromophenyl)propan-1-one], for which the IC50 was greater than 1000 nM.

On to `Cc1ccccc1C[C@@H](N)CC(=O)N1CCCC(c2nc3ccccc3[nH]2)C1` (stereo partly drawn) [Compound 42, (3R)-1-(3-(1H-benzo[d]imidazol-2-yl)piperidin-1-yl)-3-amino-4-o-tolylbutan-1-one], for which the IC50 was greater than 1000 nM.

For the compound `Cc1cccc(C[C@@H](N)CC(=O)N2CCCC(c3nc4ccccc4[nH]3)C2)c1` (stereo partly drawn) [Compound 43, (3R)-1-(3-(1H-benzo[d]imidazol-2-yl)piperidin-1-yl)-3-amino-4-m-tolylbutan-1-one], the IC50 was greater than 1000 nM.

For `N[C@@H](CC(=O)N1CCCC(c2nc3ccccc3[nH]2)C1)Cc1ccc2ccccc2c1` (stereo partly drawn) [Compound 44, (3R)-1-(3-(1H-benzo[d]imidazol-2-yl)piperidin-1-yl)-3-amino-4-(naphthalen-2-yl)butan-1-one], the IC50 was greater than 1000 nM.

In the case of `O=C(C1CCCN1)N1CCCC(c2nc3ccccc3[nH]2)C1` (centres unmarked) [Compound 45, (3-(1H-benzo[d]imidazol-2-yl)piperidin-1-yl)(pyrrolidin-2-yl)methanone], the IC50 was greater than 1000 nM. The value for `CC(C)C[C@H](N)C(=O)N1CCCC(c2nc3ccccc3[nH]2)C1` (stereo partly drawn) [Compound 46, (2S)-1-(3-(1H-benzo[d]imidazol-2-yl)piperidin-1-yl)-2-amino-4-methylpentan-1-one] was greater than 1000 nM; that for `CC(C)[C@H](N)C(=O)N1CCCC(c2nc3ccccc3[nH]2)C1` (stereo partly drawn) [Compound 47, (2S)-1-(3-(1H-benzo[d]imidazol-2-yl)piperidin-1-yl)-2-amino-3-methylbutan-1-one] was greater than 1000 nM; that for `CC[C@H](C)[C@H](N)C(=O)N1CCCC(c2nc3ccccc3[nH]2)C1` (stereo partly drawn) [Compound 48, (2S,3S)-1-(3-(1H-benzo[d]imidazol-2-yl)piperidin-1-yl)-2-amino-3-methylpentan-1-one] was greater than 1000 nM. In the case of `O=C([C@@H]1CCCN1C1CCNCC1)N1CCCC(c2nc3ccccc3[nH]2)C1` (stereo partly drawn) [Compound 49, (3-(1H-benzo[d]imidazol-2-yl)piperidin-1-yl)((S)-1-(piperidin-4-yl)pyrrolidin-2-yl)methanone] it was greater than 1000 nM; in that of `C[C@@H](N)C(=O)N1CCCC(c2nc3ccccc3[nH]2)C1` (stereo partly drawn) [Compound 50, (2R)-1-(3-(1H-benzo[d]imidazol-2-yl)piperidin-1-yl)-2-aminopropan-1-one], greater than 1000 nM. Regarding `CC[C@@H](N)C(=O)N1CCCC(c2nc3ccccc3[nH]2)C1` (stereo partly drawn) [Compound 51, (2R)-1-(3-(1H-benzo[d]imidazol-2-yl)piperidin-1-yl)-2-aminobutan-1-one], the IC50 is greater than 1000 nM. Consider `O=C(C1CCCNC1)N1CCCC(c2nc3ccccc3[nH]2)C1` (centres unmarked) [Compound 52, (3-(1H-benzo[d]imidazol-2-yl)piperidin-1-yl)(piperidin-3-yl)methanone], for which the IC50 was greater than 1000 nM. In the case of `C[C@H](N)C(=O)N1CCCC(c2nc3ccccc3[nH]2)C1` (stereo partly drawn) [Compound 53, (2S)-1-(3-(1H-benzo[d]imidazol-2-yl)piperidin-1-yl)-2-aminopropan-1-one] it was greater than 1000 nM; in that of `O=C([C@H]1CCCN1)N1CCCC(c2nc3ccccc3[nH]2)C1` (stereo partly drawn) [Compound 54, (3-(1H-benzo[d]imidazol-2-yl)piperidin-1-yl)((R)-pyrrolidin-2-yl)methanone], greater than 1000 nM; in that of `O=C(C1CNC1)N1CCCC(c2nc3ccccc3[nH]2)C1` (centres unmarked) [Compound 55, (3-(1H-benzo[d]imidazol-2-yl)piperidin-1-yl)(azetidin-3-yl)methanone], greater than 1000 nM. In the case of `CC(C)(C)[C@H](N)C(=O)N1CCCC(c2nc3ccccc3[nH]2)C1` (stereo partly drawn) [Compound 56, (2S)-1-(3-(1H-benzo[d]imidazol-2-yl)piperidin-1-yl)-2-amino-3,3-dimethylbutan-1-one] it was greater than 1000 nM; in that of `N[C@H]1CCC[C@@H]1C(=O)N1CCCC(c2nc3ccccc3[nH]2)C1` (stereo partly drawn) [Compound 57, (3-(1H-benzo[d]imidazol-2-yl)piperidin-1-yl)((1S,2S)-2-aminocyclopentyl)methanone], greater than 1000 nM.

Consider `N[C@H](Cc1ccccc1)C(=O)N1CCCC(c2nc3ccccc3[nH]2)C1` (stereo partly drawn) [Compound 58, (2R)-1-(3-(1H-benzo[d]imidazol-2-yl)piperidin-1-yl)-2-amino-3-phenylpropan-1-one], for which the IC50 was greater than 1000 nM.

`NC1(C(=O)N2CCCC(c3nc4ccccc4[nH]3)C2)CCC1` (centres unmarked) [Compound 59, (3-(1H-benzo[d]imidazol-2-yl)piperidin-1-yl)(1-aminocyclobutyl)methanone]: the IC50 was greater than 1000 nM. As for `N[C@@H](CCl)C(=O)N1CCCC(c2nc3ccccc3[nH]2)C1` (stereo partly drawn) [Compound 60, (2R)-1-(3-(1H-benzo[d]imidazol-2-yl)piperidin-1-yl)-2-amino-3-chloropropan-1-one], the IC50 is greater than 1000 nM. The value for `N[C@H](C(=O)N1CCCC(c2nc3ccccc3[nH]2)C1)C1CCCCC1` (stereo partly drawn) [Compound 61, (2S)-1-(3-(1H-benzo[d]imidazol-2-yl)piperidin-1-yl)-2-amino-2-cyclohexylethanone] was greater than 1000 nM; that for `N[C@@H](Cc1ccccn1)C(=O)N1CCCC(c2nc3ccccc3[nH]2)C1` (stereo partly drawn) [Compound 62, (2S)-1-(3-(1H-benzo[d]imidazol-2-yl)piperidin-1-yl)-2-amino-3-(pyridin-2-yl)propan-1-one] was greater than 1000 nM.

With `NC1(C(=O)N2CCCC(c3nc4ccccc4[nH]3)C2)CC1` (centres unmarked) [Compound 63, (3-(1H-benzo[d]imidazol-2-yl)piperidin-1-yl)(1-aminocyclopropyl)methanone], the IC50 was greater than 1000 nM.
